Experimental data: the supplement of paper PMC6045584
± gives the standard deviation of the averaged measurements.

Assays:
[1] = compound: Cn1cc(C2=Nc3cc(NC(=O)C(N)C4CCCCC4)cc4c3C2=CNNC4=O)cn1; test: area under dose-response curve of surviving fraction (unscaled, Aref=0) (surviving fraction x log10(nM)); higher = more resistant; conditions: exposure time: 5 days; dose range 0.5-1000 nM
Method in brief: (§1)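 Inhibitor was applied to tumour cell lines at eight concentrations (0.5 to 1000 nM) for five days in 384-well plates. Luminescence from CellTiter-Glo, scaled to DMSO-only wells, gave surviving fractions in three screens per line, and these were fitted by 3-parameter logistic regression with the drc R package. The area under the curve is an unscaled activity area. Aref was 0, and dose was on a log10 scale.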

CANERTINIB [2] = compound: T1, C=CC(=O)Nc1cc2c(Nc3ccc(F)c(Cl)c3)ncnc2cc1OCCCN1CCOCC1 [CANERTINIB]; test: as above; conditions: exposure time: 5 days; dose range 0.5-1000 nM
Method in brief: as §1

MDV3100 [3] = compound: T2, CNC(=O)c1ccc(N2C(=S)N(c3ccc(C#N)c(C(F)(F)F)c3)C(=O)C2(C)C)cc1F [MDV3100]; test: as above; conditions: exposure time: 5 days; dose range 0.5-1000 nM
Method in brief: as §1

AFATINIB [4] = compound: T3, CN(C)C/C=C/C(=O)Nc1cc2c(Nc3ccc(F)c(Cl)c3)ncnc2cc1O[C@H]1CCOC1 [AFATINIB]; test: as above; conditions: exposure time: 5 days; dose range 0.5-1000 nM
Method in brief: as §1

SAPACITABINE [5] = compound: T4, CCCCCCCCCCCCCCCC(=O)Nc1ccn([C@@H]2O[C@H](CO)[C@@H](O)[C@@H]2C#N)c(=O)n1 [SAPACITABINE]; test: as above; conditions: exposure time: 5 days; dose range 0.5-1000 nM
Method in brief: as §1

SNX-5422 [6] = compound: T5, CC1(C)CC(=O)c2c(C(F)(F)F)nn(-c3ccc(C(N)=O)c(N[C@H]4CC[C@H](OC(=O)CN)CC4)c3)c2C1 [SNX-5422]; test: as above; conditions: exposure time: 5 days; dose range 0.5-1000 nM
Method in brief: as §1

BI-2536 [7] = compound: T6, CC[C@@H]1C(=O)N(C)c2cnc(Nc3ccc(C(=O)NC4CCN(C)CC4)cc3OC)nc2N1C1CCCC1 [BI-2536]; test: as above; conditions: exposure time: 5 days; dose range 0.5-1000 nM
Method in brief: as §1

TIOGUANINE [8] = compound: T7, Nc1nc2[nH]cnc2c(=S)[nH]1 [TIOGUANINE]; test: as above; conditions: exposure time: 5 days; dose range 0.5-1000 nM
Method in brief: as §1

[9] = compound: Cn1cc(C2=Nc3cc(NC(=O)C(N)C4CCCCC4)cc4c3C2=CNNC4=O)cn1; test: surviving fraction relative to DMSO-only wells; higher = less growth inhibition; conditions: exposure time: 5 days
Method in brief: (§2)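 After seeding at 250–500 cells per well in 384-well plates and a 24-hour wait, log-phase tumour cell lines were exposed without interruption for five days to inhibitors at 0.5, 1, 5, 10, 50, 100, 500 and 1000 nM. CellTiter-Glo luminescence was recorded after 10 minutes at room temperature. Viability is reported as surviving fraction, the luminescence normalised to the median of DMSO-only wells.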

CANERTINIB [10] = compound: T1, CANERTINIB; test: as above; conditions: exposure time: 5 days
Method in brief: as §2

MDV3100 [11] = compound: T2, MDV3100; test: as above; conditions: exposure time: 5 days
Method in brief: as §2

AFATINIB [12] = compound: T3, AFATINIB; test: as above; conditions: exposure time: 5 days
Method in brief: as §2

SAPACITABINE [13] = compound: T4, SAPACITABINE; test: as above; conditions: exposure time: 5 days
Method in brief: as §2

SNX-5422 [14] = compound: T5, SNX-5422; test: as above; conditions: exposure time: 5 days
Method in brief: as §2

BI-2536 [15] = compound: T6, BI-2536; test: as above; conditions: exposure time: 5 days
Method in brief: as §2

TIOGUANINE [16] = compound: T7, TIOGUANINE; test: as above; conditions: exposure time: 5 days
Method in brief: as §2

With MDAMB468 BREAST the “area under dose-response curve” value [1] was 2.58, the “area under dose-response curve” value (CANERTINIB [2]) was 2.41 and the “area under dose-response curve” value (MDV3100 [3]) was 3.41. The “area under dose-response curve” value (AFATINIB [4]) was 2.26, the “area under dose-response curve” value (SAPACITABINE [5]) was 2.27 and the “area under dose-response curve” value (SNX-5422 [6]) was 1.94. The “area under dose-response curve” value (BI-2536 [7]) was 1.06, the “area under dose-response curve” value (TIOGUANINE [8]) was 3.52 and the surviving fraction ([9]; 0.5 nM) was 0.95 ± 0.0069. It also gave a surviving fraction ([9]; 1 nM) of 0.975 ± 0.067, a surviving fraction ([9]; 5 nM) of 0.984 ± 0.049 and a surviving fraction ([9]; 10 nM) of 0.978 ± 0.031. It also gave a surviving fraction ([9]; 50 nM) of 0.858 ± 0.025, a surviving fraction ([9]; 100 nM) of 0.786 ± 0.11 and a surviving fraction ([9]; 500 nM) of 0.151 ± 0.0051. It also gave a surviving fraction ([9]; 1000 nM) of 0.0767 ± 0.0046, a surviving fraction (CANERTINIB [10]; 0.5 nM) of 0.866 ± 0.035 and a surviving fraction (CANERTINIB [10]; 1 nM) of 0.837 ± 0.087. For the same test system, the surviving fraction (CANERTINIB [10]; 5 nM) was 0.841 ± 0.087, the surviving fraction (CANERTINIB [10]; 10 nM) was 0.777 ± 0.054 and the surviving fraction (CANERTINIB [10]; 50 nM) was 0.789 ± 0.068. The surviving fraction (CANERTINIB [10]; 100 nM) was 0.72 ± 0.07, the surviving fraction (CANERTINIB [10]; 500 nM) was 0.478 ± 0.029 and the surviving fraction (CANERTINIB [10]; 1000 nM) was 0.382 ± 0.017. It also gave a surviving fraction (MDV3100 [11]; 0.5 nM) of 0.972 ± 0.053, a surviving fraction (MDV3100 [11]; 1 nM) of 0.952 ± 0.072 and a surviving fraction (MDV3100 [11]; 5 nM) of 1.05 ± 0.11. The surviving fraction (MDV3100 [11]; 10 nM) was 1.01 ± 0.068, the surviving fraction (MDV3100 [11]; 50 nM) was 1.14 ± 0.094 and the surviving fraction (MDV3100 [11]; 100 nM) was 1.04 ± 0.13. The surviving fraction (MDV3100 [11]; 500 nM) was 1.05 ± 0.038, the surviving fraction (MDV3100 [11]; 1000 nM) was 0.97 ± 0.11 and the surviving fraction (AFATINIB [12]; 0.5 nM) was 1.07 ± 0.026. The surviving fraction (AFATINIB [12]; 1 nM) was 1.04 ± 0.021, the surviving fraction (AFATINIB [12]; 5 nM) was 0.861 ± 0.078 and the surviving fraction (AFATINIB [12]; 10 nM) was 0.767 ± 0.14. For the same test system, the surviving fraction (AFATINIB [12]; 50 nM) was 0.61 ± 0.017, the surviving fraction (AFATINIB [12]; 100 nM) was 0.617 ± 0.025 and the surviving fraction (AFATINIB [12]; 500 nM) was 0.297 ± 0.012. It also gave a surviving fraction (AFATINIB [12]; 1000 nM) of 0.0913 ± 0.0067, a surviving fraction (SAPACITABINE [13]; 0.5 nM) of 0.811 ± 0.012 and a surviving fraction (SAPACITABINE [13]; 1 nM) of 0.862 ± 0.087. The surviving fraction (SAPACITABINE [13]; 5 nM) was 0.88 ± 0.069, the surviving fraction (SAPACITABINE [13]; 10 nM) was 0.847 ± 0.086 and the surviving fraction (SAPACITABINE [13]; 50 nM) was 0.792 ± 0.03. For the same test system, the surviving fraction (SAPACITABINE [13]; 100 nM) was 0.56 ± 0.07, the surviving fraction (SAPACITABINE [13]; 500 nM) was 0.204 ± 0.018 and the surviving fraction (SAPACITABINE [13]; 1000 nM) was 0.193 ± 0.028. For the same test system, the surviving fraction (SNX-5422 [14]; 0.5 nM) was 1.038 ± 0.0097, the surviving fraction (SNX-5422 [14]; 1 nM) was 1.05 ± 0.097 and the surviving fraction (SNX-5422 [14]; 5 nM) was 1.1 ± 0.043. For the same test system, the surviving fraction (SNX-5422 [14]; 10 nM) was 1.033 ± 0.009, the surviving fraction (SNX-5422 [14]; 50 nM) was 0.138 ± 0.013 and the surviving fraction (SNX-5422 [14]; 100 nM) was 0.164 ± 0.021. The surviving fraction (SNX-5422 [14]; 500 nM) was 0.221 ± 0.026, the surviving fraction (SNX-5422 [14]; 1000 nM) was 0.207 ± 0.031 and the surviving fraction (BI-2536 [15]; 0.5 nM) was 0.902 ± 0.037. It also gave a surviving fraction (BI-2536 [15]; 1 nM) of 0.462 ± 0.048, a surviving fraction (BI-2536 [15]; 5 nM) of 0.0863 ± 0.0084 and a surviving fraction (BI-2536 [15]; 10 nM) of 0.111 ± 0.018. For the same test system, the surviving fraction (BI-2536 [15]; 50 nM) was 0.215 ± 0.018, the surviving fraction (BI-2536 [15]; 100 nM) was 1.05 ± 0.061 and the surviving fraction (BI-2536 [15]; 500 nM) was 0.111 ± 0.008. It also gave a surviving fraction (BI-2536 [15]; 1000 nM) of 0.084 ± 0.0027, a surviving fraction (TIOGUANINE [16]; 0.5 nM) of 1.02 ± 0.079 and a surviving fraction (TIOGUANINE [16]; 1 nM) of 0.995 ± 0.025. For the same test system, the surviving fraction (TIOGUANINE [16]; 5 nM) was 1.08 ± 0.056, the surviving fraction (TIOGUANINE [16]; 10 nM) was 1.06 ± 0.1 and the surviving fraction (TIOGUANINE [16]; 50 nM) was 1.1 ± 0.056. The surviving fraction (TIOGUANINE [16]; 100 nM) was 1.19 ± 0.087, the surviving fraction (TIOGUANINE [16]; 500 nM) was 1.04 ± 0.087 and the surviving fraction (TIOGUANINE [16]; 1000 nM) was 1.05 ± 0.042.
